Test results reported in US20150218173A1, “SUBSTITUTED INDAZOL-PYRROLOPYRIMIDINES USEFUL IN THE TREATMENT OF HYPERFOLIFERATIVE DISORDERS” (BAYER PHARMA AKTIENGESELLSCHAFT, priority 2012, published 2015).

The molecules below were run against T1, human full-length MKNK1 (Homo sapiens, UniProt Q9BUB5, T385D) (assay: MKNK1 kinase high ATP assay (TR-FRET)). Conditions: high ATP (2 mM final), 15 min preincubation with enzyme.
T1 construct: GST (N); purchased Carna Biosciences 02-145; host or cells: insect cells (baculovirus expression system)
T1 sequence (Q9BUB5 1-424 isoform Q9BUB5-2 T344D): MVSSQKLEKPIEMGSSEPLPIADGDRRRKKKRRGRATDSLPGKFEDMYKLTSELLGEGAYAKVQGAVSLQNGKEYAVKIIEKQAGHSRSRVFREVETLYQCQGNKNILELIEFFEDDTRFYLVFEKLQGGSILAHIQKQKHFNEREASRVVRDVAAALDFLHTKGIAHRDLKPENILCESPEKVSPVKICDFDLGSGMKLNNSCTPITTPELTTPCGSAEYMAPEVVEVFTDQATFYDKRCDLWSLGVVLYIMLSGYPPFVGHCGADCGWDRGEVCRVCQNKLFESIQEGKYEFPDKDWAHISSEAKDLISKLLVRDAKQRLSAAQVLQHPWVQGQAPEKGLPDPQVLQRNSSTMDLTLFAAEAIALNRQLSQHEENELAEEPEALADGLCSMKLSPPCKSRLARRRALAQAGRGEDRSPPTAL
Format: biochemical
Procedure: MKNK1-inhibitory activity at high ATP of compounds of the present invention after their preincubation with MKNK1 was quantified employing the TR-FRET-based MKNK1 high ATP assay as described in the following paragraphs.
A recombinant fusion protein of Glutathione-S-Transferase (GST, N-terminally) and human full-length MKNK1 (amino acids 1-424 and T344D of accession number BAA 19885.1), expressed in insect cells using baculovirus expression system and purified via glutathione sepharose affinity chromatography, was purchased from Carna Biosciences (product no 02-145) and used as enzyme. As substrate for the kinase reaction the biotinylated peptide biotin-Ahx-IKKRKLTRRKSLKG (C-terminus in amide form) was used, which can be purchased e.g. from the company Biosyntan (Berlin-Buch, Germany).
For the assay 50 nL of a 100 fold concentrated solution of the test compound in DMSO was pipetted into a black low volume 384 well microtiter plate (Greiner Bio-One, Frickenhausen, Germany), 2 μL of a solution of MKNK1 in aqueous assay buffer [50 mM HEPES pH 7.5, 5 mM MgCl2, 1.0 mM dithiothreitol, 0.005% (v/v) Nonidet-P40 (Sigma)] was added and the mixture was incubated for 15 min at 22° C. to allow pre-binding of the test compounds to the enzyme before the start of the kinase reaction. Then the kinase reaction was started by the addition of 3 μL of a solution of adenosine-tri-phosphate (ATP, 3.3 mM=>final conc. in the 5 μL assay volume is 2 mM) and substrate (0.1 μM=>final conc. in the 5 μL assay volume is 0.06 μM) in assay buffer and the resulting mixture was incubated for a reaction time of 30 min at 22° C. The concentration of MKNK1 was adjusted depending of the activity of the enzyme lot and was chosen appropriate to have the assay in the linear range, typical concentrations were in the range of 0.003 μg/mL. The reaction was stopped by the addition of 5 μL of a solution of TR-FRET detection reagents (5 nM streptavidine-XL665 [Cisbio Bioassays, Codolet, France] and 1 nM anti-ribosomal protein S6 (pSer236)-antibody from Invitrogen [#44921G] and 1 nM LANCE EU-W1024 labeled ProteinG [Perkin-Elmer, product no. AD0071]) in an aqueous EDTA-solution (100 mM EDTA, 0.1% (w/v) bovine serum albumin in 50 mM HEPES pH 7.5).
The resulting mixture was incubated for 1 h at 22° C. to allow the formation of complex between the phosphorylated biotinylated peptide and the detection reagents. Subsequently the amount of phosphorylated substrate was evaluated by measurement of the resonance energy transfer from the Eu-chelate to the streptavidine-XL. Therefore, the fluorescence emissions at 620 nm and 665 nm after excitation at 350 nm were measured in a TR-FRET reader, e.g. a Rubystar (BMG Labtechnologies, Offenburg, Germany) or a Viewlux (Perkin-Elmer). The ratio of the emissions at 665 nm and at […] was taken as the measure for the amount of phosphorylated substrate. The data were normalised (enzyme reaction without inhibitor=0% inhibition, all other assay components but no enzyme=100% inhibition).

| Compound | IC50 [nM] |
| --- | --- |
| Fc1ccc(-c2c[nH]c3ncnc(Nc4ccc5[nH]ncc5c4)c23)cc1 [Example 12, 5-(4-Fluorophenyl)-N-(1H-indazol-5-yl)-7H-pyrrolo[2,3-d]pyrimidin-4-amine] | 16 |
| Clc1cc2c(Nc3ccc4[nH]ncc4c3)ncnc2[nH]1 [Example 28, 6-Chloro-N-(1H-indazol-5-yl)-7H-pyrrolo[2,3-d]pyrimidin-4-amine] | 32 |
| C1=C(c2c[nH]c3ncnc(Nc4ccc5[nH]ncc5c4)c23)CCOC1 [Example 17, 5-(3,6-Dihydro-2H-pyran-4-yl)-N-(1H-indazol-5-yl)-7H-pyrrolo[2,3-d]pyrimidin-4-amine] | 12 |
| O=C(c1[nH]c2ncnc(Nc3ccc4[nH]ncc4c3)c2c1Br)N1CCOCC1 [Example 44, [5-Bromo-4-(1H-indazol-5-ylamino)-7H-pyrrolo[2,3-d]pyrimidin-6-yl](morpholin-4-yl)methanone] | 48 |
| Cc1cc2c(Nc3ccc4[nH]ncc4c3)ncnc2[nH]1 [Example 7, N-(1H-Indazol-5-yl)-6-methyl-7H-pyrrolo[2,3-d]pyrimidin-4-amine] | 31 |
| Brc1c[nH]c2ncnc(Nc3ccc4[nH]ncc4c3)c12 [Example 2, 5-Bromo-N-(1H-indazol-5-yl)-7H-pyrrolo[2,3-d]pyrimidin-4-amine] | 10 |
| c1nc(Nc2ccc3[nH]ncc3c2)c2cc(C3CCOCC3)[nH]c2n1 [Example 24, N-(1H-Indazol-5-yl)-6-(tetrahydro-2H-pyran-4-yl)-7H-pyrrolo[2,3-d]pyrimidin-4-amine] | 29 |
| CCOC(=O)c1cc2c(Nc3ccc4[nH]ncc4c3)ncnc2[nH]1 [Example 4, Ethyl 4-(1H-indazol-5-ylamino)-7H-pyrrolo[2,3-d]pyrimidine-6-carboxylate] | 25 |
| O=C(c1[nH]c2ncnc(Nc3ccc4[nH]ncc4c3)c2c1Br)N1CCCCC1 [Example 45, [5-Bromo-4-(1H-indazol-5-ylamino)-7H-pyrrolo[2,3-d]pyrimidin-6-yl](piperidin-1-yl)methanone] | 45 |
| Cc1c[nH]c2ncnc(Nc3ccc4[nH]ncc4c3)c12 [Example 18, N-(1H-Indazol-5-yl)-5-methyl-7H-pyrrolo[2,3-d]pyrimidin-4-amine] | 22 |

Molecules with a lower IC50, results first:

| IC50 [nM] | Compound |
| --- | --- |
| 8 | O=C(NC1CCOCC1)c1cc2c(Nc3ccc4[nH]ncc4c3)ncnc2[nH]1 [Example 25, 4-(1H-Indazol-5-ylamino)-N-(tetrahydro-2H-pyran-4-yl)-7H-pyrrolo[2,3-d]pyrimidine-6-carboxamide] |
| 5 | CCCCNC(=O)c1cc2c(Nc3ccc4[nH]ncc4c3)ncnc2[nH]1 [Example 22, N-Butyl-4-(1H-indazol-5-ylamino)-7H-pyrrolo[2,3-d]pyrimidine-6-carboxamide] |
| 5 | O=C(O)c1[nH]c2ncnc(Nc3ccc4[nH]ncc4c3)c2c1Br [Example 31, 5-Bromo-4-(1H-indazol-5-ylamino)-7H-pyrrolo[2,3-d]pyrimidine-6-carboxylic acid] |
| 6 | c1cc(-c2c[nH]c3ncnc(Nc4ccc5[nH]ncc5c4)c23)ccn1 [Example 14, N-(1H-Indazol-5-yl)-5-(pyridin-4-yl)-7H-pyrrolo[2,3-d]pyrimidin-4-amine] |
| 1 | O=S(=O)(c1ccc(Cl)cc1)c1cc2c(Nc3ccc4[nH]ncc4c3)ncnc2[nH]1 [Example 38, 6-[(4-Chlorophenyl)sulfonyl]-N-(1H-indazol-5-yl)-7H-pyrrolo[2,3-d]pyrimidin-4-amine] |
| 6 | C(=C\c1cc2c(Nc3ccc4[nH]ncc4c3)ncnc2[nH]1)/c1ccccc1 [Example 10, N-(1H-Indazol-5-yl)-6-[(E)-2-phenylethenyl]-7H-pyrrolo[2,3-d]pyrimidin-4-amine] |
| 4 | C=C(C)c1cc2c(Nc3ccc4[nH]ncc4c3)ncnc2[nH]1 [Example 8, N-(1H-indazol-5-yl)-6-(prop-1-en-2-yl)-7H-pyrrolo[2,3-d]pyrimidin-4-amine] |
| 2 | C1=C(c2cc3c(Nc4ccc5[nH]ncc5c4)ncnc3[nH]2)CCOC1 [Example 16, 6-(3,6-Dihydro-2H-pyran-4-yl)-N-(1H-indazol-5-yl)-7H-pyrrolo[2,3-d]pyrimidin-4-amine] |
